Laboratory results taken from US11617777B2, “Cytotoxic and anti-mitotic compounds, and methods of using the same” (ZYMEWORKS BC INC., priority 2013, dated 2023).
Read-outs that look alike come from different tables or passages of the source.

Experiments:
Assay type in all cases: cell-based
[1] = test system: HT-29; experiment: Cytotoxicity on various cell lines; settings: Homo sapiens, Table 8
Source text: (§1) FIG. 1 summarizes the data for compounds A, B, C, D, and E when tested using the Human mammary carcinoma cell line HCC1954 or Human T-cell leukemia cell line Jurkat. FIGS. 2-6 show the cytotoxicity data plots for individual compounds A-E. Tables 2-6 summarize the results of additional cytotoxicity assays.
(§2) Cell lines used: Human T-cell leukemia cell line Jurkat (ATCC: TIB-152); HCC1954 (ATCC: CRL. 2338); Human Pancreatic cells lines: AsPC-1 (ATCC: CRL-1682), BxPC-3 (ATCC: CRL.1687), HPAF-II (ATCC: CRL.1997), MiaPaCa2 (ATCC: CRL.1420), PANC-1 (ATCC: CRL.1469), Capan-1 (ATCC: HTB-79), Capan-2 (ATCC: HTB-80) and the Human gastric carcinoma cell line NCI-N87 (ATCC: CRL. 5822); AML-193 (ATCC: CRL.9589), CCRF-CEM (ATCC: CCL-119), DU145 (ATCC: HTB-81), PC-3 (ATCC: CRL.1435), A-431 (ATCC: CRL.1555), HT-29 (ATCC: HTB-38), A-172 (ATCC: CRL.1620), NCI-H358 (ATCC: CRL.5807), A549 (ATCC: CCL-185), Colo-205 (ATCC: CCL-222), MDA-MB-231 (ATCC: HTB-26), OVCAR-3 (ATCC: HTB-161), OV-90 (ATCC: CRL.11732), OE19 (Sigma: 96071721), RT 112/84 (Sigma: 85061106).
(§3) On the day prior to adding compounds, HCC1954 AsPC-1, BxPC-3, HPAF-II, MiaPaCa2, PANC-1, Capan-1, Capan-2 and NCI-N87 cells were added to opaque-walled 96-well tissue culture-treated microtiter plates using complete growth medium at a density of 2500 cells/100 microlitre (uL) of medium. These adherant cell lines cells were incubated for one night at 37° C./5% CO2 to allow the cells to attach to the microtiter plate surface. On the day that compounds were added, Jurkat cells are added to separate 96-well microtiter plates at 2500 cells/100 uL using the same growth medium as HCC1954. Compound were first serially diluted using dimethyl sulfoxide, and then the prepared dilutions are added to complete growth medium at five-times the final concentration—compounds were then titrated 1:3, eight steps. A control with no compound (growth medium alone) was included on each microtiter plate in sextuplicate. The prepared compounds titrations were added (twenty-five uL/well) in triplicate. The cells and compound titrations were incubated at 37° C./5% CO2 for three nights. After the incubation, cell viability is measured using CellTiter-Glo® reagent by adding thirty uL of prepared CellTiter-Glo® to each assay well. The assay is incubated for at least twenty minutes in the dark prior to measuring emitted luminescence using a microplate luminometer (500 ms integration time). The collected relative luminescence units (RLU) are converted to % cytotoxicity using the Growth medium alone control mentioned above (% Cytotoxicity=1−[Well RLU/average medium alone control RLU]).
(§4) GraphPad Prism was used for generation of EC50 values using three parameter non-linear regression curve fitting.

[2] = test system: OE19; experiment: Cytotoxicity on various cell lines; settings: Homo sapiens, Table 8
Source text: as §1, §2, §3, §4

[3] = test system: PC-3; experiment: Cytotoxicity on various cell lines; settings: Homo sapiens, Table 8
Source text: as §1, §2, §3, §4

[4] = test system: DU145; experiment: Cytotoxicity on various cell lines; settings: Homo sapiens, DU-145, Table 8
Source text: as §1, §2, §3, §4

[5] = test system: A-172; experiment: Cytotoxicity on various cell lines; settings: Homo sapiens, Table 8
Source text: as §1, §2, §3, §4

[6] = test system: OVCAR-3; experiment: Cytotoxicity on various cell lines; settings: Homo sapiens, Table 8
Source text: as §1, §2, §3, §4

[7] = test system: MDA-MB-231; experiment: Cytotoxicity on various cell lines; settings: Homo sapiens, Table 8
Source text: as §1, §2, §3, §4

[8] = test system: NCI-H358; experiment: Cytotoxicity on various cell lines; settings: Homo sapiens, Table 8
Source text: as §1, §2, §3, §4

[9] = test system: A-431; experiment: Cytotoxicity on various cell lines; settings: Homo sapiens, Table 8
Source text: as §1, §2, §3, §4

[10] = test system: CCRF-CEM; experiment: Cytotoxicity on various cell lines; settings: Homo sapiens, Table 8
Source text: as §1, §2, §3, §4

[11] = test system: OV-90; experiment: Cytotoxicity on various cell lines; settings: Homo sapiens, Table 8
Source text: as §1, §2, §3, §4

[12] = test system: AML-193; experiment: Cytotoxicity on various cell lines; settings: Table 8
Source text: as §1, §2, §3, §4

[13] = test system: RT112/84; experiment: Cytotoxicity on various cell lines; settings: Homo sapiens, Table 8
Source text: as §1, §2, §3, §4

[14] = test system: Colo-205; experiment: Cytotoxicity on various cell lines; settings: Homo sapiens, Table 8
Source text: as §1, §2, §3, §4

[15] = test system: HCC1954 cells; experiment: Cytotoxicity of compounds, CellTiter-Glo; settings: Homo sapiens, HCC1954; Table 8; HCC-1954; read-out: (EC50)
Source text: as §2, §3, §4

[16] = test system: Capan-2; experiment: Cytotoxicity of compounds, CellTiter-Glo; settings: Homo sapiens, Table 5
Source text: as §1, §2, §3, §4

[17] = test system: NCI-N87; experiment: Cytotoxicity of compounds, CellTiter-Glo; settings: Homo sapiens
Source text: as §1, §2, §3, §4

[18] = test system: Capan-1; experiment: Cytotoxicity of compounds, CellTiter-Glo; settings: Homo sapiens, Table 5
Source text: as §1, §2, §3, §4

[19] = test system: MiaPaCa2; experiment: Cytotoxicity of compounds, CellTiter-Glo; settings: Homo sapiens
Source text: as §1, §2, §3, §4

[20] = test system: PANC-1; experiment: Cytotoxicity of compounds, CellTiter-Glo; settings: Homo sapiens
Source text: as §1, §2, §3, §4

[21] = test system: AsPC-1; experiment: Cytotoxicity of compounds, CellTiter-Glo; settings: Homo sapiens
Source text: as §1, §2, §3, §4

[22] = test system: BxPC-3; experiment: Cytotoxicity of compounds, CellTiter-Glo; settings: Homo sapiens
Source text: as §1, §2, §3, §4

[23] = test system: HPAF-II; experiment: Cytotoxicity of compounds, CellTiter-Glo; settings: Homo sapiens
Source text: as §1, §2, §3, §4

## CN[C@H](C(=O)N[C@H](C(=O)N(C)[C@H](/C=C(\C)C(=O)NS(=O)(=O)Cc1ccccc1)C(C)C)C(C)(C)C)C(C)(C)c1ccccc1 [Compound 14, (S,E)-N-(benzylsulfonyl)-2,5-dimethyl-4-((S)—N,3,3-trimethyl-2-((S)-3-methyl-2-(methylamino)-3-phenylbutanamido)butanamido)hex-2-enamide]
[1]
  EC50: 0.167 nM
[2]
  EC50: 0.21 nM
[3]
  EC50: 0.455 nM
[4]
  EC50: 0.649 nM
[5]
  EC50: 0.598 nM
[6]
  EC50: 0.09 nM
[7]
  EC50: 1.24 nM
[8]
  EC50: 0.311 nM
[9]
  EC50: 0.191 nM
[10]
  EC50: 0.13 nM
[11]
  EC50: 0.515 nM
[12]
  EC50: 0.191 nM
[13]
  EC50: 0.178 nM
[14]
  EC50: ~0.317 nM
[15]
  EC50: 0.131 nM
[16]
  EC50: 1.1 nM
[17]; Table 5, read-out: Cytotoxicity (EC50) NCI-N87
  EC50: 0.175 nM
[17]; Table 8, read-out: (EC50)
  EC50: 0.325 nM
[18]
  EC50: 2.08 nM
[19]; MIA PaCa-2, Table 5, MinPaCa2, read-out: Cytotoxicity (EC50) MinPaCa2
  EC50: 0.204 nM
[19]; Table 8, Mia PaCa-2, read-out: (EC50)
  EC50: 0.332 nM
[20]; Table 5, read-out: Cytotoxicity (EC50) PANC-1
  EC50: 1.36 nM
[20]; Table 8, read-out: (EC50)
  EC50: 0.759 nM
[21]; ASPC1, Table 5, read-out: Cytotoxicity (EC50) AsPC-1
  EC50: 0.206 nM
[21]; ASPC1, Table 8, read-out: (EC50)
  EC50: 0.334 nM
[22]; Table 5, read-out: Cytotoxicity (EC50) BxPC-3
  EC50: 0.0458 nM
[22]; Table 8, read-out: (EC50)
  EC50: 0.196 nM
[23]; Table 5, read-out: Cytotoxicity (EC50) HPAF-II
  EC50: 0.172 nM
[23]; Table 8, read-out: (EC50)
  EC50: ~0.385 nM
